# Test results from patent publication US20240325370A1, “THERAPEUTIC REGIMENS OF A DEGRADER OF BRD9” (FOGHORN THERAPEUTICS INC., priority 2021, published 2024).
# Like-named read-outs stand apart in the source and are kept apart here.
# Key:
# [1] = test system: ASKA synovial sarcoma xenografts; assay: ASKA synovial sarcoma xenograft efficacy; format: in vivo; settings: for Tumor Growth (%) on Day 21 / Tumor Size (mm^3) on Day 21: Mean ± SEM; for T/C (%) / TGI (%): Day 21
# Protocol: A study was conducted to examine anti-tumor efficacy of compound S-D1 with BIW IV dosing of the racemate, compound D1, for 3 weeks utilizing a second xenograft model of human synovial sarcoma, ASKA. Vehicle (0.5% HPMC, 0.1% Tween 80 in water, pH 1.3 to 1.5), administered orally, was used as the general comparator for all test article responses (i.e., tumor growth and body weight changes). Pazopanib and ifosfamide, two agents currently used in clinic to treat synovial sarcoma patients were compared to compound D1 treatment alone. Pazopanib was administered orally at 40 mg/kg QD and ifosfamide was given IV at 80 mg/kg QD for the first 3 days (Days 0, 1, and 2) in the 3-week treatment period, mimicking the equivalent treatment regimens for both drugs in human patients.
# [2] = test system: SYO-1 human biphasic synovial sarcoma tumor; assay: SYO-1 synovial sarcoma xenograft efficacy, daily i.p. dosing; format: in vivo; settings: 1 mg/kg i.p. daily, 3 weeks; NOD SCID mice
# Protocol: Method: NOD SCID mice (Beijing Anikeeper Biotech, Beijing) were inoculated subcutaneously on the right flank with the single cell suspension of SYO-1 human biphasic synovial sarcoma tumor cells (5×106) in 100 μL Dulbecco's Modified Eagle Medium (DMEM) with 10% fetal bovine serum (FBS). The mice were randomized into either control group [10% dimethyl sulfoxide (DMSO), 40% polyethylene glycol (PEG400) and 50% water], or treatment group D1 when the mean tumor size reached about 117 mm^3. Mice were dosed daily through intraperitoneal (i.p.) route over the course of 3 weeks. All dose volumes were adjusted by body weights in terms of mg/kg.
# [3] = molecular target: T1, BRD9 (Homo sapiens, UniProt Q9H8M2); assay: BRD9 degradation by western blot in synovial sarcoma cells (SYO-1, ASKA); format: cell-based; settings: for DC50: read-out: Fitted DC50
# T1 sequence (Q9H8M2 1-597): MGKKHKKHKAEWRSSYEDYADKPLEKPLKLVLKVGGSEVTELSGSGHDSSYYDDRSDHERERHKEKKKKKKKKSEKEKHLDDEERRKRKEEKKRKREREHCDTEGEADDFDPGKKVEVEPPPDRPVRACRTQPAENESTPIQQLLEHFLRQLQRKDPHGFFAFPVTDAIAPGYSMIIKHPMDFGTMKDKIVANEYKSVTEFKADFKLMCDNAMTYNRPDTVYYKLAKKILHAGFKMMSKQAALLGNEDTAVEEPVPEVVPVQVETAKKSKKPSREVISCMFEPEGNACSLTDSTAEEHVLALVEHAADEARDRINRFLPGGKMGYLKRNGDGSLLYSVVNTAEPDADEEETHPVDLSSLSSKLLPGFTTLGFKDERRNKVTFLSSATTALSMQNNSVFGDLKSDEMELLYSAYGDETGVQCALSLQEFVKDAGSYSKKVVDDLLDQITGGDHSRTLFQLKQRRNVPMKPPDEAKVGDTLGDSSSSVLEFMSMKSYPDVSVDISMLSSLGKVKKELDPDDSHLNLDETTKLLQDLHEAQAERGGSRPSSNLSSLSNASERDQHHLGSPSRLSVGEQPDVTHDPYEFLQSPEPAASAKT
# Protocol: Method. Synovial sarcoma cells were plated in 6-well plate at […] cells/well and treated with serial concentrations of BRD9 degrader (10 nM top concentration, diluted 1:3) the next day for two time points at 37° C. Cells were then harvested, washed with cold PBS, and frozen in cell pellets at −80° C. Lysates were prepared by resuspending thawed pellets in 1×RIPA Lysis and Extraction buffer (Thermo Fisher, Cat #89900) with 1× Halt™ Protease and Phosphatase Inhibitor Cocktail, EDTA-free (Thermo Fisher, Cat #78441) and 1:1000 dilution Pierce™ Universal Nuclease for Cell Lysis 25ku (Thermo Fisher, Cat #88700). Lysates were incubated on ice for 10 minutes and then centrifuged in 4° C. at maximum speed (15,000 rpm) for 10 minutes. Samples were then analyzed for total protein using BCA protein quantification assay and diluted to 1 ug/μL with lysis buffer and 1× NuPAGE™ LDS Sample Buffer (4×) (Thermo Fisher, Cat #NP0007) and 1×DTT from 30× stock (Cell Signaling Technologies, Cat #14265S). Samples with 20-25 ug of total protein were loaded into 4-12% Bis-Tris Mini-Gel with 1×MES Running buffer and run at 150V for 45 minutes. Gels were transferred using Trans-Blot® Turbo™ Transfer System (semi-dry) at 25V for 10 minutes (High MW setting) on nitrocellulose blots. Blots were blocked in 5% milk in TBST for 1 hour and probed with BRD9 antibody (Bethyl Labs, Cat #A303-781A, 1:750 for SYO1, and Cell Signaling Technologies, Cat #71232S for ASKA) and beta-Actin antibody (Cell Signaling Technologies, Cat #3700, 1:2000) overnight at 4° C. The next day, blots were washed in TBST 3× and probed with 1:5000 IRDye® 680LT Goat anti-Rabbit IgG Secondary Antibody (LICOR, Cat #926-68021) and 1:10000 IRDye® 800CW Goat anti-Mouse IgG Secondary Antibody (LiCOR, Cat #926-32210) in LiCOR Odyssey® Blocking Buffer (TBS) for 1 hour at room temperature. Blots were washed in TBST 3× and scanned at […] wavelength using LiCOR Odyssey® CLx Imaging System. Western blot signal was quantified using same analyses program included in the same machine. BRD9 signal was quantified by normalizing to beta-actin signal and all samples were normalized to DMSO, set as 100% signal.
# [4] = molecular target: T2, endogenous BRD9 (Homo sapiens, UniProt Q9H8M2); assay: MSD assay of endogenous BRD9 degradation in synovial sarcoma cell lines; format: cell-based; settings: 6 hours, estimated from racemate compound D1 (about 50% active enantiomer)
# T2 sequence (Q9H8M2 1-597): T1 sequence (Q9H8M2 1-597)
# [5] = 0.1 mg/kg BIW IV 3 weeks, ASKA xenograft
# [6] = 0.5 mg/kg BIW IV 3 weeks, ASKA xenograft
# [7] = 2 mg/kg BIW IV 3 weeks, ASKA xenograft
# [8] = 0.5 or 2 mg/kg BIW IV, ASKA xenograft
structure (smiles),measurement,setting,value
"COc1cc(-c2cn(C)c(=O)c3cnc(N4CCC4)cc23)cc(OC)c1CN1CCC(CN2CCC3(CC2)CN(c2ccc4c(c2)C(=O)N(C2CCC(=O)NC2=O)C4)C3)CC1 (racemic) [Compound D1, 3-[6-(7-[[1-([4-[6-(azetidin-1-yl)-2-methyl-1-oxo-2,7-naphthyridin-4-yl]-2,6-dimethoxyphenyl]methyl)piperidin-4-yl]methyl]-2,7-diazaspiro[3.5]nonan-2-yl)-1-oxo-3H-isoindol-2-yl]piperidine-2,6-dione]",Tumor Growth (%) on Day 21,[1]; [5],440 ± 46%
same,Tumor Size (mm^3) on Day 21,[1]; [5],634 ± 82 mm^3
same,T/C (%),[1]; 0.1 mg/kg BIW IV 3 weeks,36.1%
same,TGI (%),[1]; 0.1 mg/kg BIW IV 3 weeks,63.9%
same,Tumor Growth (%) on Day 21,[1]; [6],121 ± 13%
same,Tumor Size (mm^3) on Day 21,[1]; [6],175 ± 26 mm^3
same,T/C (%),[1]; 0.5 mg/kg BIW IV 3 weeks,9.9%
same,TGI (%),[1]; 0.5 mg/kg BIW IV 3 weeks,90.1%
same,Tumor Growth (%) on Day 21,[1]; [7],92 ± 6%
same,Tumor Size (mm^3) on Day 21,[1]; [7],130 ± 10 mm^3
same,T/C (%),[1]; 2 mg/kg BIW IV 3 weeks,7.6%
same,TGI (%),[1]; 2 mg/kg BIW IV 3 weeks,92.4%
same,tumor response,[1]; [8],Tumor stasis
same,tumor stasis continued after the cessation of dosing,[1]; [8],approximately 15 days
same,tumor growth inhibition,[2],tumor growth inhibition
"COc1cc(-c2cn(C)c(=O)c3cnc(N4CCC4)cc23)cc(OC)c1CN1CCC(CN2CCC3(CC2)CN(c2ccc4c(c2)C(=O)N([C@H]2CCC(=O)NC2=O)C4)C3)CC1 (single isomer, unassigned) [Compound S-D1]",DC50,"[3]; ASKA, 0.5 h",0.34 nM
same,DC50,"[3]; ASKA, 2 h",0.012 nM
same,BRD9 degradation compared with racemic parent compound D1,"[3]; SYO-1, 1 or 6 hours (FIGS. 16 and 17)",slightly better
same,DC50,"[3]; SYO-1, 1 h",0.092 nM
same,DC50,"[3]; SYO-1, 6 h",0.023 nM
same,potency in degradation of endogenous BRD9 protein,"[3]; two synovial sarcoma cell lines, early time point",much more potent
same,DC50,[4],0.025 to 0.1 nM
